Data published in patent US10457667B2, “Indolin-2-one derivatives” (Hoffmann-La Roche Inc., priority 2015, dated 2019).

What follows are compounds tested against T1, mouse ENT-1 transporter (Mus musculus, UniProt Q9JIM1) (assay: ENT1 adenosine uptake inhibition ([3H]-adenosine transport activity)). Conditions: stable cells expressing mouse ENT-1; [2,8-3H]-adenosine 6 nM, 20 min.
T1 construct: expressed in transfected cells
T1 sequence (Q9JIM1 1-460): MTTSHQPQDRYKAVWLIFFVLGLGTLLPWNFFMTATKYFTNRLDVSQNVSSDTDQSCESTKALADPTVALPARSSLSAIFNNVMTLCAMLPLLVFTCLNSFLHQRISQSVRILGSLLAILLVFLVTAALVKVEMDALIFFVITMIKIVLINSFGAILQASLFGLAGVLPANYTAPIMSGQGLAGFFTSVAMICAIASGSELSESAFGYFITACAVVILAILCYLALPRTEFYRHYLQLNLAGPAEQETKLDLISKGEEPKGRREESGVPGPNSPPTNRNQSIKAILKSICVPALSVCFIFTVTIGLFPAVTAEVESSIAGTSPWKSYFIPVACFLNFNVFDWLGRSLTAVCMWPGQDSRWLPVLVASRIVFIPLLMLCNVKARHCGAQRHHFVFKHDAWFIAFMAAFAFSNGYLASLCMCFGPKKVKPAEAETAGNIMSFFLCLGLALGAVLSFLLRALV
Assay type: cell-based
Method: To measure adenosine transport activity of ENT-1 mammalian cells, stable cells expressing the mouse ENT-1 transporter were plated on day 1 in 96-well culture plates at the density of 60,000 cells/well, in complete DMEM/F12 medium supplemented with glutamax, 10% FBS and 10 μg/ml puromycin. On day 2, the medium was aspirated and the cells were washed twice with uptake buffer (10 mM Hepes-Tris, pH 7.4 containing 150 mM NaCl, 1 mM CaCl2, 2.5 mM KCl, 2.5 mM MgSO4, 10 mM D-glucose) (UB). For inhibition experiments, cells were then incubated at RT with various concentrations of compounds with 1% DMSO final. Non-specific uptake was defined in the presence of 10 μM S-(4-Nitrobenzyl)-6-thioinosine (NBTI, Sigma Cat #N2255).
A solution containing [2,8-^3H]-adenosine 6 nM (40 Ci/mmol, American Radiolabeled chemicals Inc, Cat #ART 0287A) was then immediately added to the wells. The plates were then incubated for 20 min with gentle shaking and the reaction was stopped by aspiration of the mixture and washing (three times) with ice-cold UB. The cells were lysed by the addition of scintillation liquid, shaken 3 hours and the radioactivity in the cells was estimated using a microplates scintillation counter (TopCount NXT, Packard).

Row | SMILES | IC50 [nM]
1 | COc1cc(N2C(=O)C(C)(C)c3ccc(-c4cnc(C)nc4)cc32)cnc1C [Example 3, 1-(5-Methoxy-6-methylpyridin-3-yl)-3,3-dimethyl-6-(2-methylpyrimidin-5-yl)indolin-2-one] | 242
2 | CCOc1cncc(N2C(=O)C(C)(C)c3ccc(-c4cnc(C)nc4)cc32)c1 [Example 5, 1-(5-Ethoxypyridin-3-yl)-3,3-dimethyl-6-(2-methylpyrimidin-5-yl)indolin-2-one] | 64.3
3 | COc1cccc(N2C(=O)C(C)(C)c3ccc(-c4cnc(C)nc4)cc32)c1 [Example 6, 1-(3-Methoxyphenyl)-3,3-dimethyl-6-(2-methylpyrimidin-5-yl)indolin-2-one] | 289
4 | Cc1ncc(-c2ccc3c(c2)N(c2cncc(OC(C)C)c2)C(=O)C3(C)C)cn1 [Example 7, 1-(5-Isopropoxypyridin-3-yl)-3,3-dimethyl-6-(2-methylpyrimidin-5-yl)indolin-2-one] | 183
5 | COc1cnc(N2C(=O)C(C)(C)c3ccc(-c4cnc(C)nc4)cc32)cn1 [Example 11, 1-(5-Methoxypyrazin-2-yl)-3,3-dimethyl-6-(2-methylpyrimidin-5-yl)indolin-2-one] | 272
6 | Cc1ncc(-c2ccc3c(c2)N(c2ccc(OC(F)(F)F)cn2)C(=O)C3(C)C)cn1 [Example 14, 3,3-Dimethyl-6-(2-methylpyrimidin-5-yl)-1-(5-(trifluoromethoxy)pyridin-2-yl)indolin-2-one] | 118
7 | Cc1ncc(-c2ccc3c(c2)N(c2ccc(OCC(F)(F)F)nc2)C(=O)C3(C)C)cn1 [Example 16, 3,3-Dimethyl-6-(2-methylpyrimidin-5-yl)-1-(6-(2,2,2-trifluoroethoxy)pyridin-3-yl)indolin-2-one] | 811
8 | Cc1ncc(-c2ccc3c(c2)N(c2cnc(OC4COC4)nc2)C(=O)C3(C)C)cn1 [Example 17, 3,3-Dimethyl-6-(2-methylpyrimidin-5-yl)-1-(2-(oxetan-3-yloxy)pyrimidin-5-yl)indolin-2-one] | 823

The remaining compounds from weak to strong by IC50, led by results:

Row | IC50 [nM] | SMILES
9 | 951 | Cc1ncc(-c2ccc3c(c2)N(c2cnc4c(c2)OCCN4)C(=O)C3(C)C)cn1 [Example 8, 1-(3,4-Dihydro-2H-pyrido[3,2-b][1,4]oxazin-7-yl)-3,3-dimethyl-6-(2-methylpyrimidin-5-yl)indolin-2-one]
10 | 843 | COc1ncc(N2C(=O)C(C)(C)c3ccc(-c4cnc(C)nc4)cc32)cn1 [Example 15, 1-(2-Methoxypyrimidin-5-yl)-3,3-dimethyl-6-(2-methylpyrimidin-5-yl)indolin-2-one]
11 | 785 | COc1cncc(N2C(=O)C3(CCC3)c3ccc(-c4cnc(C)nc4)cc32)c1 [Example 19, 1′-(5-Methoxypyridin-3-yl)-6′-(2-methylpyrimidin-5-yl)spiro[cyclobutane-1,3′-indolin]-2′-one]
12 | 615 | Cc1ncc(-c2ccc3c(c2)N(c2ccc(O)nn2)C(=O)C3(C)C)cn1 [Example 13, 1-(6-Hydroxypyridazin-3-yl)-3,3-dimethyl-6-(2-methylpyrimidin-5-yl)indolin-2-one]
13 | 438 | COc1cncc(N2C(=O)C(C)(C)c3ccc(-c4cnc(C)nc4)cc32)c1 [Example 2, 1-(5-Methoxypyridin-3-yl)-3,3-dimethyl-6-(2-methylpyrimidin-5-yl)indolin-2-one]
14 | 154 | COc1cc(N2C(=O)C(C)(C)c3ccc(-c4cnc(C)nc4)cc32)cnc1Cl [Example 9, 1-(6-Chloro-5-methoxypyridin-3-yl)-3,3-dimethyl-6-(2-methylpyrimidin-5-yl)indolin-2-one]
15 | 139 | COc1cc(N2C(=O)C(C)(C)c3ccc(-c4cnc(C)nc4)cc32)cnc1C1CC1 [Example 10, 1-(6-Cyclopropyl-5-methoxypyridin-3-yl)-3,3-dimethyl-6-(2-methylpyrimidin-5-yl)indolin-2-one]
16 | 130 | COc1ccc(N2C(=O)C3(CCC3)c3ccc(-c4cnc(C)nc4)cc32)nn1 [Example 20, 1′-(6-Methoxypyridazin-3-yl)-6′-(2-methylpyrimidin-5-yl)spiro[cyclobutane-1,3′-indolin]-2′-one]
17 | 110 | COc1cc(N2C(=O)C(C)(C)c3ccc(-c4cnc(C)nc4)cc32)nc(OC)n1 [Example 4, 1-(2,6-Dimethoxypyrimidin-4-yl)-3,3-dimethyl-6-(2-methylpyrimidin-5-yl)indolin-2-one]
18 | 73 | COc1cncc(N2C(=O)C(C)(C)c3ccc(-c4cnc(C)nc4)cc32)n1 [Example 1, 1-(6-Methoxypyrazin-2-yl)-3,3-dimethyl-6-(2-methylpyrimidin-5-yl)indolin-2-one]
19 | 50.9 | Cc1ncc(-c2ccc3c(c2)N(c2ccc4onc(C)c4c2)C(=O)C3(C)C)cn1 [Example 18, 3,3-Dimethyl-1-(3-methylbenzo[d]isoxazol-5-yl)-6-(2-methylpyrimidin-5-yl)indolin-2-one]

The compounds below were run on L-687,414-induced hyperlocomotion (assay: L-687,414-induced hyperlocomotion). Conditions: mice; dose 30 mg/kg ip, 15 min before s.c. 50 mg/kg L-687,414.
Assay type: in vivo, mouse
Method: The described compounds of formula I reduce L-687,414-induced hyperlocomotion. This was assessed by using a computerized Digiscan 16 Animal Activity Monitoring System (Omnitech Electronics, Columbus, Ohio) to quantify locomotor activity. Animals were kept under a 12 h light/dark cycle and experiments were performed during the light period. Each activity monitoring chamber consisted of a Plexiglas box (41×41×28 cm; W×L×H) with sawdust bedding on the floor surrounded by invisible horizontal and vertical infrared sensor beams. The test boxes were divided by a Plexiglas cross providing each mouse with 20×20 cm of moving space. Cages were connected to a Digiscan Analyzer linked to a computer that constantly collected the beam status information. Records of photocell beam interruptions for individual animals were taken every 5 min over the duration of the experimental session and the sum of the first 6 periods was used as the final parameter. At least 8 mice were used in each treatment group. Compounds were administered i.p 15 min before a s.c. injection of 50 mg/kg of L-687,414. […] Horizontal activity was then recorded for a 30-min time period. The % inhibition of L-687,414-induced hyperlocomotion was calculated according to the equation: ((Veh+L−687,414 horizontal activity−drug+L−687,414 horizontal activity)/Veh+L−687,414 horizontal activity)×100 […]

Row | SMILES | Inhibition, ip of L-687,414-induced hyperlocomotion [%]
20 | COc1cncc(N2C(=O)C(C)(C)c3ccc(-c4cnc(C)nc4)cc32)c1 [Example 2, 1-(5-Methoxypyridin-3-yl)-3,3-dimethyl-6-(2-methylpyrimidin-5-yl)indolin-2-one] | 93.6

Each compound was assayed on behaviors of compound-treated mice (assay: SmartCube behavioral signature similarity analysis). Conditions: SmartCube; test compound at 3 mg/kg i.p.; rate of 0.70 or lower = similar.
Assay type: in vivo, mouse
Excerpt: authors described that hyperlocomotion induced by L-687,414 was inhibited by a series of known antipsychotic drugs. […] These findings predict antipsychotic activity for the present compounds, making them useful for the treatment of positive (psychosis) and negative symptoms of schizophrenia, substance abuse, alcohol and drug addiction, obsessive-compulsive disorders, cognitive impairment, bipolar disorders, mood disorders, major depression, resistant depression, anxiety disorders, Alzheimer's disease, autism, Parkinson's disease, chronic pain, borderline personality disorder, sleep disturbances, chronic fatigue syndrome, stiffness, antiinflammatory effects in arthritis and balance problems, epilepsy and neurodevelopmental disorders with co morbid epilepsy. In addition to the reversal of L-687,414 induced hyperlocomotion experiment as described above, some compounds of the present invention have been tested in SmartCube®, an automated system in which the behaviors of compound-treated mice in response to multiple challenges are captured by digital video and analyzed with computer algorithms (Roberds et al., Frontiers in Neuroscience, 2011, Vol. 5, Art. 103, 1-4; Vadim Alexandrov, Dani Brunner, Taleen Hanania, Emer Leahy Eur. J. Pharmacol. 2015, 750, 82-99). In this way, the neuro-pharmacological effects of a test compound can be predicted by similarity to major classes of compounds, such as antipsychotics, anxiolytics and antidepressants.
SmartCube® was used to compare the behavioral signature of a test compound to a database of behavioral signatures obtained from a large set of clinically approved reference drugs, grouped per indications. In this way, the neuro-pharmacological effects of a test compound can be predicted by similarity to major classes of compounds, such as antipsychotics, anxiolytics and antidepressants. This approach is ideally suited to screen collections of existing drugs or drug candidates with previously unknown neuropharmacology, which could expedite the development of new and unexpected treatments for psychiatric disorders.
Some compounds of the present invention were injected i.p. at different doses 15 minutes before the test. At least 8 mice were used in each treatment group. Digital videos of the subjects were processed with computer vision algorithms to extract over 2000 dependent measures including frequency and duration of many different behavioral states. The results of the classifications are presented as bar charts for each compound and dose (mg/kg), the Y-axis indicates the relative probability that the test compound will show efficacy in the specific CNS indication.
Compounds of the present invention show similar signatures to those of atypical antipsychotics. An independent analysis was performed on the unclassified data to determine the similarity of the example compounds to active doses of known atypical antipsychotics. For this analysis, we use discrimination rate as the measure of separability between the two drugs, i.e. one drug's “distinguishability” from another. A rate equal to 50% (or 0.5) corresponds to zero distinguishability. […] In most cases, the example compounds show a similarity to risperidone, clozapine and olanzapine with a discrimination rate of ≤0.70.

Row | SMILES | discrimination rate vs Clozapine (1.0 mg/kg) | discrimination rate vs Olanzapine (0.25 mg/kg) | discrimination rate vs Risperidone (0.06 mg/kg)
21 | COc1cncc(N2C(=O)C(C)(C)c3ccc(-c4cnc(C)nc4)cc32)c1 [Example 2, 1-(5-Methoxypyridin-3-yl)-3,3-dimethyl-6-(2-methylpyrimidin-5-yl)indolin-2-one] | 0.58 | 0.68 | 0.51

Same assay, conditions: mice; result in words

Row | SMILES | SmartCube behavioral signature classification
22 | COc1cncc(N2C(=O)C(C)(C)c3ccc(-c4cnc(C)nc4)cc32)c1 [Example 2, 1-(5-Methoxypyridin-3-yl)-3,3-dimethyl-6-(2-methylpyrimidin-5-yl)indolin-2-one] | similarity to atypical antipsychotics
